From patent US6809065B2, “Herbicide containing substituted pyrazole derivative as active ingredient” (SDS Biotech K.K., priority 2001, dated 2004)

What was measured:
[1] = tested on: Stellaria media; assay: Upland soil treatment (Test Example 2); assay type: in vivo; conditions: soil surface treatment next day after sowing, wettable powder, 1 kg active ingredient per hectare, evaluated 21st day after application
Summary of the method: (§1)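 Index rating at day 21 after a single pre-emergence soil-surface application, 1 kg a.i./ha, made the day after sowing in upland soil; for crops a lower index indicates higher safety.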

[2] = tested on: Digitaria adscendens; assay: Upland soil treatment (Test Example 2); assay type: in vivo; conditions: soil surface treatment next day after sowing, wettable powder, 1 kg active ingredient per hectare, evaluated 21st day after application
Summary of the method: as §1

[3] = tested on: Chenopodium album; assay: Upland soil treatment (Test Example 2); assay type: in vivo; conditions: soil surface treatment next day after sowing, wettable powder, 1 kg active ingredient per hectare, evaluated 21st day after application
Summary of the method: as §1

[4] = tested on: Setaria viridis; assay: Upland soil treatment (Test Example 2); assay type: in vivo; conditions: soil surface treatment next day after sowing, wettable powder, 1 kg active ingredient per hectare, evaluated 21st day after application
Summary of the method: as §1

[5] = tested on: wheat (Triticum aestivum); assay: Upland soil treatment (Test Example 2), crop; assay type: in vivo; conditions: soil surface treatment next day after sowing, 1 kg active ingredient per hectare, evaluated 21st day, lower index = higher safety
Summary of the method: as §1

[6] = tested on: soybean (Glycine max); assay: Upland soil treatment (Test Example 2), crop; assay type: in vivo; conditions: soil surface treatment next day after sowing, 1 kg active ingredient per hectare, evaluated 21st day, lower index = higher safety
Summary of the method: as §1

[7] = tested on: wheat (Triticum aestivum); assay: Upland field foliage treatment (Test Example 1), crop; assay type: in vivo; conditions: foliage treatment 14th day after sowing, 1 kg active ingredient per hectare, evaluated 21st day, lower index = higher safety
Summary of the method: (§2)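 Read-out is a visual index scored 21 days after treatment. Higher values mean more herbicidal effect on weeds and lower values mean better crop safety. Plants were raised from seed in upland soil and received a leaf-surface spray of 1 kg active ingredient per hectare at 14 days.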

[8] = tested on: soybean (Glycine max); assay: as above; assay type: in vivo; conditions: foliage treatment 14th day after sowing, 1 kg active ingredient per hectare, evaluated 21st day, lower index = higher safety
Summary of the method: as §2

[9] = tested on: rice (Oryza sative, variety: Koshihikari); assay: Paddy field treatment (Test Example 3), crop; assay type: in vivo, Oryza sativa; conditions: transplanted rice two-leaf period, water surface treatment 10th day after transplantation, 1 kg active ingredient per hectare, evaluated 21st day, lower index = higher safety
Summary of the method: (§3)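 Pot test, flooded paddy soil (4 cm water); weeds sown, 2-leaf rice (Koshihikari) transplanted. Day 10 post-transplant: WP dropped on water, 1 kg a.i./ha. Score index at 21 d after application; higher = stronger herbicidal effect.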

[10] = tested on: Stellaria media; assay: Upland field foliage treatment (Test Example 1); assay type: in vivo; conditions: foliage treatment 14th day after sowing, wettable powder, 1 kg active ingredient per hectare, evaluated 21st day after application
Summary of the method: as §2

[11] = tested on: Digitaria adscendens; assay: Upland field foliage treatment (Test Example 1); assay type: in vivo; conditions: foliage treatment 14th day after sowing, wettable powder, 1 kg active ingredient per hectare, evaluated 21st day after application
Summary of the method: as §2

[12] = tested on: Chenopodium album; assay: Upland field foliage treatment (Test Example 1); assay type: in vivo; conditions: foliage treatment 14th day after sowing, wettable powder, 1 kg active ingredient per hectare, evaluated 21st day after application
Summary of the method: as §2

[13] = tested on: Setaria viridis; assay: Upland field foliage treatment (Test Example 1); assay type: in vivo; conditions: foliage treatment 14th day after sowing, wettable powder, 1 kg active ingredient per hectare, evaluated 21st day after application
Summary of the method: as §2

[14] = tested on: Monochoria vaginalis; assay: Paddy field treatment (Test Example 3); assay type: in vivo; conditions: paddy pot, submerged 4 cm, dropped on water surface 10th day after transplantation, 1 kg active ingredient per hectare, evaluated 21st day
Summary of the method: as §3

[15] = tested on: Ammannia multiflora; assay: Paddy field treatment (Test Example 3); assay type: in vivo; conditions: paddy pot, submerged 4 cm, dropped on water surface 10th day after transplantation, 1 kg active ingredient per hectare, evaluated 21st day
Summary of the method: as §3

[16] = tested on: Scirpus juncoides; assay: Paddy field treatment (Test Example 3); assay type: in vivo; conditions: paddy pot, submerged 4 cm, dropped on water surface 10th day after transplantation, 1 kg active ingredient per hectare, evaluated 21st day
Summary of the method: as §3

[17] = tested on: Echinochloa spp.; assay: Paddy field treatment (Test Example 3); assay type: in vivo, Echinochloa crusgalli; conditions: paddy pot, submerged 4 cm, dropped on water surface 10th day after transplantation, 1 kg active ingredient per hectare, evaluated 21st day
Summary of the method: as §3

## COC=C(Cn1nc(-c2ccccc2)c(Cl)c1C)C(=O)OC [Compound 12]
[1]
  Herbicidal activity Stellaria media: 4 (herbicidal effect of not less than 70% by weight and less than 90% by weight)
[2]
  Herbicidal activity Digitaria adscendens: 5 (herbicidal effect of not less than 90% by weight)
[3]
  Herbicidal activity Chenopodium album: 5 (herbicidal effect of not less than 90% by weight)
[4]
  Herbicidal activity Setaria viridis: 4 (herbicidal effect of not less than 70% by weight and less than 90% by weight)
[5]
  Herbicidal activity Triticum aestivum: 0 (herbicidal effect of not less than 0% by weight and less than 10% by weight)
[6]
  Herbicidal activity Glycine max: 0 (herbicidal effect of not less than 0% by weight and less than 10% by weight)
[7]
  Herbicidal activity Triticum aestivum: 0 (herbicidal effect of not less than 0% by weight and less than 10% by weight)
[8]
  Herbicidal activity Glycine max: 1 (herbicidal effect of not less than 10% by weight and less than 30% by weight)
[9]
  Herbicidal activity Oryza sativa: 0 (herbicidal effect of not less than 0% by weight and less than 10% by weight)
[10]
  Herbicidal activity Stellaria media: 5 (herbicidal effect of not less than 90% by weight)
[11]
  Herbicidal activity Digitaria adscendens: 5 (herbicidal effect of not less than 90% by weight)
[12]
  Herbicidal activity Chenopodium album: 5 (herbicidal effect of not less than 90% by weight)
[13]
  Herbicidal activity Setaria viridis: 4 (herbicidal effect of not less than 70% by weight and less than 90% by weight)
[14]
  Herbicidal activity Monochoria vaginalis: 5 (herbicidal effect of not less than 90% by weight)
[15]
  Herbicidal activity Ammannia multiflora: 5 (herbicidal effect of not less than 90% by weight)
[16]
  Herbicidal activity Scirpus juncoides: 4 (herbicidal effect of not less than 70% by weight and less than 90% by weight)
[17]
  Herbicidal activity Echinochloa spp.: 4 (herbicidal effect of not less than 70% by weight and less than 90% by weight)

## CO/C=C(/C(=O)OC)n1nc(-c2cccc(Cl)c2)c(Cl)c1C [Control, reference compound]
[1]
  Herbicidal activity Stellaria media: 0 (herbicidal effect of not less than 0% by weight and less than 10% by weight)
[2]
  Herbicidal activity Digitaria adscendens: 0 (herbicidal effect of not less than 0% by weight and less than 10% by weight)
[3]
  Herbicidal activity Chenopodium album: 0 (herbicidal effect of not less than 0% by weight and less than 10% by weight)
[4]
  Herbicidal activity Setaria viridis: 0 (herbicidal effect of not less than 0% by weight and less than 10% by weight)
[5]
  Herbicidal activity Triticum aestivum: 0 (herbicidal effect of not less than 0% by weight and less than 10% by weight)
[6]
  Herbicidal activity Glycine max: 0 (herbicidal effect of not less than 0% by weight and less than 10% by weight)
[7]
  Herbicidal activity Triticum aestivum: 0 (herbicidal effect of not less than 0% by weight and less than 10% by weight)
[8]
  Herbicidal activity Glycine max: 0 (herbicidal effect of not less than 0% by weight and less than 10% by weight)
[9]
  Herbicidal activity Oryza sativa: 0 (herbicidal effect of not less than 0% by weight and less than 10% by weight)
[10]
  Herbicidal activity Stellaria media: 0 (herbicidal effect of not less than 0% by weight and less than 10% by weight)
[11]
  Herbicidal activity Digitaria adscendens: 0 (herbicidal effect of not less than 0% by weight and less than 10% by weight)
[12]
  Herbicidal activity Chenopodium album: 0 (herbicidal effect of not less than 0% by weight and less than 10% by weight)
[13]
  Herbicidal activity Setaria viridis: 0 (herbicidal effect of not less than 0% by weight and less than 10% by weight)
[14]
  Herbicidal activity Monochoria vaginalis: 0 (herbicidal effect of not less than 0% by weight and less than 10% by weight)
[15]
  Herbicidal activity Ammannia multiflora: 0 (herbicidal effect of not less than 0% by weight and less than 10% by weight)
[16]
  Herbicidal activity Scirpus juncoides: 0 (herbicidal effect of not less than 0% by weight and less than 10% by weight)
[17]
  Herbicidal activity Echinochloa spp.: 0 (herbicidal effect of not less than 0% by weight and less than 10% by weight)

## COC=C(Cn1ccc(-c2ccccc2)n1)C(=O)OC [Compound 1]
[1]
  Herbicidal activity Stellaria media: 4 (herbicidal effect of not less than 70% by weight and less than 90% by weight)
[2]
  Herbicidal activity Digitaria adscendens: 5 (herbicidal effect of not less than 90% by weight)
[3]
  Herbicidal activity Chenopodium album: 4 (herbicidal effect of not less than 70% by weight and less than 90% by weight)
[4]
  Herbicidal activity Setaria viridis: 4 (herbicidal effect of not less than 70% by weight and less than 90% by weight)
[5]
  Herbicidal activity Triticum aestivum: 0 (herbicidal effect of not less than 0% by weight and less than 10% by weight)
[6]
  Herbicidal activity Glycine max: 0 (herbicidal effect of not less than 0% by weight and less than 10% by weight)
[7]
  Herbicidal activity Triticum aestivum: 1 (herbicidal effect of not less than 10% by weight and less than 30% by weight)
[8]
  Herbicidal activity Glycine max: 1 (herbicidal effect of not less than 10% by weight and less than 30% by weight)
[9]
  Herbicidal activity Oryza sativa: 1 (herbicidal effect of not less than 10% by weight and less than 30% by weight)
[10]
  Herbicidal activity Stellaria media: 5 (herbicidal effect of not less than 90% by weight)
[11]
  Herbicidal activity Digitaria adscendens: 5 (herbicidal effect of not less than 90% by weight)
[12]
  Herbicidal activity Chenopodium album: 5 (herbicidal effect of not less than 90% by weight)
[13]
  Herbicidal activity Setaria viridis: 5 (herbicidal effect of not less than 90% by weight)
[14]
  Herbicidal activity Monochoria vaginalis: 5 (herbicidal effect of not less than 90% by weight)
[15]
  Herbicidal activity Ammannia multiflora: 4 (herbicidal effect of not less than 70% by weight and less than 90% by weight)
[16]
  Herbicidal activity Scirpus juncoides: 5 (herbicidal effect of not less than 90% by weight)
[17]
  Herbicidal activity Echinochloa spp.: 5 (herbicidal effect of not less than 90% by weight)

## CCc1c(Cl)c(-c2ccccc2)nn1CC(=COC)C(=O)OC [Compound 39]
[1]
  Herbicidal activity Stellaria media: 4 (herbicidal effect of not less than 70% by weight and less than 90% by weight)
[2]
  Herbicidal activity Digitaria adscendens: 4 (herbicidal effect of not less than 70% by weight and less than 90% by weight)
[3]
  Herbicidal activity Chenopodium album: 4 (herbicidal effect of not less than 70% by weight and less than 90% by weight)
[4]
  Herbicidal activity Setaria viridis: 4 (herbicidal effect of not less than 70% by weight and less than 90% by weight)
[5]
  Herbicidal activity Triticum aestivum: 0 (herbicidal effect of not less than 0% by weight and less than 10% by weight)
[6]
  Herbicidal activity Glycine max: 0 (herbicidal effect of not less than 0% by weight and less than 10% by weight)
[7]
  Herbicidal activity Triticum aestivum: 0 (herbicidal effect of not less than 0% by weight and less than 10% by weight)
[8]
  Herbicidal activity Glycine max: 1 (herbicidal effect of not less than 10% by weight and less than 30% by weight)
[9]
  Herbicidal activity Oryza sativa: 0 (herbicidal effect of not less than 0% by weight and less than 10% by weight)
[10]
  Herbicidal activity Stellaria media: 5 (herbicidal effect of not less than 90% by weight)
[11]
  Herbicidal activity Digitaria adscendens: 4 (herbicidal effect of not less than 70% by weight and less than 90% by weight)
[12]
  Herbicidal activity Chenopodium album: 5 (herbicidal effect of not less than 90% by weight)
[13]
  Herbicidal activity Setaria viridis: 4 (herbicidal effect of not less than 70% by weight and less than 90% by weight)
[14]
  Herbicidal activity Monochoria vaginalis: 3 (herbicidal effect of not less than 50% by weight and less than 70% by weight)
[15]
  Herbicidal activity Ammannia multiflora: 3 (herbicidal effect of not less than 50% by weight and less than 70% by weight)
[16]
  Herbicidal activity Scirpus juncoides: 4 (herbicidal effect of not less than 70% by weight and less than 90% by weight)
[17]
  Herbicidal activity Echinochloa spp.: 4 (herbicidal effect of not less than 70% by weight and less than 90% by weight)
